This is an account of results in PubChem BioAssay (NCI).

“And” between values parts separate entries of the source, which are not always exact repeats. Identical values can stand only once.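 All cell lines were grown in 96-well plates and treated with compound for 48 hours. GI50: concentration for 50% inhibition of growth. TGI: total growth inhibition.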

Some test systems named below: DU-145 prostate; PC-3 prostate; HL-60(TB) leukemia; SNB-75 CNS; ACHN renal; SF-295 CNS; SK-MEL-5 melanoma; NCI-H226 lung; T-47D breast; 786-0 renal; U251 CNS; HCC-2998 colon.
Holding throughout (experiment): NCI anticancer screen, dose series, 48 h

Consider `CC1=C(O)c2ccccc2C(=O)C1=O`, for which the TGI with DU-145 prostate, in the assay on PC-3 prostate, with HL-60(TB) leukemia, in the assay on SNB-75 CNS, in the assay on ACHN renal and with SF-295 CNS was more than 100 µM in each case. For the same molecule, the TGI in the assay with SK-MEL-5 melanoma was more than 65.1 µM; in the assay with NCI-H226 lung, more than 100 µM; in the assay on T-47D breast, more than 100 µM; in the assay on 786-0 renal, more than 100 µM; in the assay on U251 CNS, more than 90.9 µM; with HCC-2998 colon, more than 100 µM.
With `CC(=O)c1ccc2c(c1)CC1(C2)Cc2cc3c(c(C(=O)O)c2C1)CCC3` (configuration not stated), the TGI in the assay on DU-145 prostate, with PC-3 prostate, with HL-60(TB) leukemia, in the assay with SNB-75 CNS, with ACHN renal and with SF-295 CNS was more than 100 µM in each case. The TGI with SK-MEL-5 melanoma, in the assay with NCI-H226 lung, with T-47D breast, in the assay on 786-0 renal, in the assay on U251 CNS and in the assay with HCC-2998 colon was more than 100 µM throughout.
Regarding `CC(C)=CCC[C@@H](C)C1=C(O)C(Nc2ccccc2Cl)=C(C)C(=O)C1=O`, the TGI is more than 75 µM with DU-145 prostate; more than 64.2 µM in the assay with PC-3 prostate; 4.16 µM in the assay on HL-60(TB) leukemia; more than 52.3 µM in the assay with SNB-75 CNS; more than 46.6 µM in the assay on ACHN renal; 34.2 µM in the assay with SF-295 CNS. Also, the TGI in the assay on SK-MEL-5 melanoma was 42.9 µM; with NCI-H226 lung, 29.3 µM; in the assay with T-47D breast it was 62.7 µM; in the assay with 786-0 renal, more than 52 µM; in the assay on U251 CNS, more than 75 µM; in the assay with HCC-2998 colon it was more than 56.6 µM.
Consider `Nc1nc(NCCCO)cc(=O)[nH]1`, for which the TGI in the assay on DU-145 prostate, with PC-3 prostate, in the assay with HL-60(TB) leukemia, in the assay with SNB-75 CNS, in the assay on ACHN renal and in the assay on SF-295 CNS was more than 100 µM throughout. In addition, the TGI with SK-MEL-5 melanoma, with NCI-H226 lung, with T-47D breast, in the assay with 786-0 renal, in the assay on U251 CNS and with HCC-2998 colon was more than 100 µM throughout.
For the molecule `COc1ccc(N=NC(=O)NC(CC(C)C)C(=O)NCC(=O)O)cc1` (configuration not stated), the TGI in the assay with DU-145 prostate, with PC-3 prostate, in the assay with HL-60(TB) leukemia, in the assay with SNB-75 CNS, with ACHN renal and in the assay with SF-295 CNS was more than 100 µM in each case. Also, the TGI in the assay on SK-MEL-5 melanoma is more than 56.2 µM; in the assay on NCI-H226 lung, 99 µM; with T-47D breast it was more than 84 µM; in the assay with 786-0 renal, more than 100 µM; in the assay with U251 CNS it was more than 100 µM; in the assay with HCC-2998 colon it was more than 87.5 µM.
As to `COc1c(C(=O)NCCN(CCNC(=O)c2cccc(-c3cccc(C(=O)N(C)C)c3OC)c2OC)CCNC(=O)c2cccc(-c3cccc(C(=O)N(C)C)c3OC)c2OC)cccc1-c1cccc(C(=O)N(C)C)c1OC`, the TGI is more than 100 µM in the assay with DU-145 prostate; more than 100 µM with PC-3 prostate; 69.5 µM with HL-60(TB) leukemia; 83.8 µM in the assay with SNB-75 CNS; more than 100 µM in the assay with ACHN renal; more than 100 µM in the assay on SF-295 CNS. Also, the TGI is 68.7 µM in the assay with SK-MEL-5 melanoma; 36.6 µM in the assay with NCI-H226 lung; more than 100 µM in the assay with T-47D breast; more than 100 µM in the assay on 786-0 renal; more than 100 µM with U251 CNS; 33.1 µM with HCC-2998 colon.
On to `O=C1O[C@H]2[C@H](OC(=O)c3cc(O)c(O)c(O)c3)[C@@H](OC(=O)c3cc(O)c(O)c4c3[C@@H]3C1=CC(=O)C(O)(O)C3(O)O4)[C@H](OC(=O)c1cc(O)c(O)c(O)c1)O[C@@H]2COC(=O)c1cc(O)c(O)c(O)c1` (some centres not stated), for which the TGI in the assay with DU-145 prostate, in the assay with PC-3 prostate, with HL-60(TB) leukemia, with SNB-75 CNS, with ACHN renal and in the assay on SF-295 CNS was more than 100 µM each time. Also, the TGI in the assay with SK-MEL-5 melanoma, in the assay on NCI-H226 lung, in the assay on T-47D breast, in the assay on 786-0 renal, in the assay on U251 CNS and in the assay with HCC-2998 colon was more than 100 µM in each case.
As to `Cc1ccc2nc(C(C)C)c(=O)[nH]c2c1`, the TGI with DU-145 prostate was more than 100 µM; with PC-3 prostate, 34.1 µM; in the assay on HL-60(TB) leukemia it was more than 100 µM; in the assay with SNB-75 CNS, more than 100 µM; in the assay on ACHN renal, more than 100 µM; in the assay on SF-295 CNS, more than 100 µM. The TGI in the assay with SK-MEL-5 melanoma, in the assay on NCI-H226 lung, with T-47D breast, in the assay with 786-0 renal, in the assay with U251 CNS and with HCC-2998 colon was more than 100 µM throughout.
Consider `COC(=O)CCNC(=O)OCc1ccccc1`, for which the TGI with DU-145 prostate, in the assay with PC-3 prostate, in the assay on HL-60(TB) leukemia, with SNB-75 CNS, in the assay on ACHN renal and with SF-295 CNS was more than 100 µM in each case. Moreover, the TGI in the assay on SK-MEL-5 melanoma, with NCI-H226 lung, in the assay with T-47D breast, with 786-0 renal, with U251 CNS and with HCC-2998 colon was more than 100 µM throughout.
For `CCCCc1ccc(Nc2nc(OC)c3ncn(C4CC(O)C(CO)O4)c3n2)cc1` (configuration not stated), the TGI is 37.3 µM in the assay with DU-145 prostate; 37.5 µM in the assay with PC-3 prostate; 4.16 µM in the assay with HL-60(TB) leukemia; 36.1 µM in the assay on SNB-75 CNS; 31.2 µM in the assay on ACHN renal; 36.5 µM in the assay with SF-295 CNS. Besides, the TGI in the assay on SK-MEL-5 melanoma came to 33.8 µM; in the assay with NCI-H226 lung it was 44.5 µM; in the assay on T-47D breast it was 43.1 µM; in the assay on 786-0 renal, 30.9 µM; in the assay on U251 CNS, 40 µM; with HCC-2998 colon, 20.4 µM.
With `COc1ccc(COC(=O)NCC(=O)NC(C)C(=O)NC(Cc2ccccc2)C(=O)OCc2ccccc2)cc1` (configuration not stated), the GI50 with DU-145 prostate was 31.1 µM and > 100 µM; in the assay on PC-3 prostate, 20 µM and > 100 µM; with HL-60(TB) leukemia, 3.12 µM and 17.7 µM; in the assay with SNB-75 CNS it was 21.1 µM and 44.6 µM; in the assay with SK-MEL-5 melanoma it was 13.8 µM and 56.3 µM. Moreover, the TGI with DU-145 prostate is more than 100 µM; in the assay with PC-3 prostate, 47.8 µM and > 100 µM; in the assay on HL-60(TB) leukemia, 10.7 µM and 37.8 µM; in the assay on SNB-75 CNS, 60.9 µM and 89.2 µM; in the assay with ACHN renal, 44.5 µM and 36.7 µM; in the assay on SF-295 CNS, 47.8 µM and 39.1 µM. Moreover, the TGI was 26.8 µM and > 100 µM in the assay on SK-MEL-5 melanoma; 55.9 µM and 85.6 µM with NCI-H226 lung; 48.6 µM and 86.2 µM in the assay on T-47D breast; 73.1 µM and 36 µM with 786-0 renal; 44.3 µM and 47.3 µM in the assay on U251 CNS; 64.3 µM and 37.4 µM in the assay with HCC-2998 colon.
